Earlier results, collected in patent US20140271890A1, “CONTROLLED-RELEASE PHARMACEUTICAL COMPOSITION” (priority 2013, published 2014).

Conditions: mean dose between 5 and 10 mg in a conventional formulation

Cc1ccc(-c2nc3ccc(C)cn3c2CC(=O)N(C)C)cc1 [Zolpidem]
duration of action: up to 6 hours
